{"source": "patent US20150157739A1", "about": "“Imidazo[2,1]thiazol-3-one derivatives” (Hoffmann-La Roche Inc., priority 2012, published 2015)", "key": {"[1]": {"target": "T1, aggregated synthetic Aβ40 (Homo sapiens, UniProt P05067)", "T1 construct": "Synthetic Aβ40 is aggregated at a concentration of 50 μM", "T1 sequence (P05067 672-711 limits assumed)": "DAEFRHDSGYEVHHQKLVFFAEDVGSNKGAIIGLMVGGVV", "assay": "Thiazin-red R displacement fluorescence assay on aggregated A-beta", "type": "binding", "conditions": "displacement of Thiazin-red R from aggregated Aβ40; compound 0.3 nM to 10000 nM; 30 min room temperature; Ex 531 nm/Em 595 nm"}, "[2]": {"target": "T2, aggregated recombinant human-microtubule associated protein Tau (Homo sapiens, UniProt P10636)", "T2 construct": "Recombinant human-microtubule associated protein Tau purified from E. coli is aggregated at a concentration of 5 μM with Arachidonic Acid (100 μM) in Tris 10 mM pH8, 24 h at 37° C", "T2 sequence (P10636 whole entry)": "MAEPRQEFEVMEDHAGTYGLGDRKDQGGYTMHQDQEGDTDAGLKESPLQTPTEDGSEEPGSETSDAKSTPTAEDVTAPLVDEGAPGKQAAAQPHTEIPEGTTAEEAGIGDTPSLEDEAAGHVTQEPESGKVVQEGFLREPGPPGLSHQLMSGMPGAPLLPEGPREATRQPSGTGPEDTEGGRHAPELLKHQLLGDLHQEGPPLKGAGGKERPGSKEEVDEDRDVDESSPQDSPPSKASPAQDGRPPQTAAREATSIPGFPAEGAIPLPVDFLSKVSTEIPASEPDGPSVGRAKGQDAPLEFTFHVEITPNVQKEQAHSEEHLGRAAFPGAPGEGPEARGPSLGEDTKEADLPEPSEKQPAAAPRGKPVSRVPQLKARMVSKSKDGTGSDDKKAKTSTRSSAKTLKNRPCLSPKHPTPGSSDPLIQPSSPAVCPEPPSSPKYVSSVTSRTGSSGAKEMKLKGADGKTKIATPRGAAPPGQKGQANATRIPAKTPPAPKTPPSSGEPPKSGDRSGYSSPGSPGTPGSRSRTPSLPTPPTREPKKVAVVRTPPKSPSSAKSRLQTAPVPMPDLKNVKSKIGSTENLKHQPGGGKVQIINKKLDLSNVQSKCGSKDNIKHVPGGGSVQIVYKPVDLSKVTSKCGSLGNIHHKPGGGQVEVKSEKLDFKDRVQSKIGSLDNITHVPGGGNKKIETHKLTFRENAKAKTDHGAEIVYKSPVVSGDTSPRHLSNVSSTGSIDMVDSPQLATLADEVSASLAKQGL", "assay": "Thiazin-red R displacement fluorescence assay on aggregated Tau", "type": "binding", "conditions": "displacement of Thiazin-red R from aggregated Tau; compound 0.3 nM to 10000 nM; 30 min room temperature; Ex 531 nm/Em 595 nm"}}, "data": [{"smiles": "COc1cc(/C=c2\\sc3nc(-c4ccccc4)cn3c2=O)cc(F)c1O", "note": "[Example 43, 2-[1-(3-fluoro-4-hydroxy-5-methoxy-phenyl)-meth-(Z)-ylidene]-6-phenyl-imidazo[2,1-b]thiazol-3-one]", "values": [{"measurement": "IC50", "setting": "[1]", "value": 2320, "unit": "nM"}, {"measurement": "IC50", "setting": "[2]", "value": 51, "unit": "nM"}]}, {"smiles": "COc1cccc(-c2cn3c(=O)/c(=C/c4cc(Cl)c(O)c(OC)c4)sc3n2)c1", "note": "[Example 61, 2-[1-(3-Chloro-4-hydroxy-5-methoxy-phenyl)-meth-(Z)-ylidene]-6-(3-methoxy-phenyl)-imidazo[2,1-b]thiazol-3-one]", "values": [{"measurement": "IC50", "setting": "[1]", "value": 395, "unit": "nM"}, {"measurement": "IC50", "setting": "[2]", "value": 4, "unit": "nM"}]}, {"smiles": "CCc1cccc(-c2cn3c(=O)/c(=C/c4cc(Cl)c(O)c(OC)c4)sc3n2)c1", "note": "[Example 54, 2-[1-(3-Chloro-4-hydroxy-5-methoxy-phenyl)-meth-(Z)-ylidene]-6-(3-ethyl-phenyl)-imidazo[2,1-b]thiazol-3-one]", "values": [{"measurement": "IC50", "setting": "[1]", "value": 653, "unit": "nM"}, {"measurement": "IC50", "setting": "[2]", "value": 25, "unit": "nM"}]}]}
